Assay results: PubChem BioAssay AID1963984 (Molecular Pharmacology Branch, DTP, NCI, 2024)

System: 233499-124-R-J3-PDC spheroids with HUVEC/MSC, viability
Assay: Anticancer human tumor 233499-124-R-J3-PDC patient-derived colon adenocarcinoma cell line growth inhibition [PI3K]
Settings: for IC50: curve of first compound; for viability, T/C: stronger effect = lower value
Procedure, shortened: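 Spheroid viability read-out. Co-cultures contained the tumor line plus HUVEC and human MSCs. Each agent was paired with a PI3K inhibitor (inavolisib, alpelisib, duvelisib, copanlisib) across half-log dilutions starting at clinical Cmax, or at 10 microM when Cmax was unknown.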
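Further: spheroids exposed to agents for seven days before readout.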
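Wherever viability, T/C is given: percent viability relative to DMSO vehicle control taken as 100%.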

In the case of `CC(Cn1ccc(-c2ccc(C#N)c(Cl)c2)n1)NC(=O)c1cc(C(C)O)[nH]n1` (configuration not stated) + COc1c(OCCCN2CCOCC2)ccc2c3n(c(=NC(=O)c4cnc(N)nc4)nc12)CCN3, the IC50 (second compound 0.00316 µM) is reported as > 10 µM, the IC50 (second compound 0.01 µM) is reported as > 10 µM and the IC50 (second compound 0.0316 µM) is reported as > 10 µM. For the same compound, the IC50 (second compound 0.1 µM) was 5.04 µM, the IC50 (second compound 0.316 µM) was < 0.0316 µM and the IC50 (second compound 1 µM) was < 0.0316 µM. For the same compound, the viability, T/C (second compound 0.00316 µM, first compound 0.0316 µM) was 92.3%, the viability, T/C (second compound 0.00316 µM, first compound 0.1 µM) was 107% and the viability, T/C (second compound 0.00316 µM, first compound 0.316 µM) was 102%. For the same compound, the viability, T/C (second compound 0.00316 µM, first compound 1 µM) was 102%, the viability, T/C (second compound 0.00316 µM, first compound 3.16 µM) was 101% and the viability, T/C (second compound 0.00316 µM, first compound 10 µM) was 96.8%. It also gave a viability, T/C (second compound 0.01 µM, first compound 0.0316 µM) of 91.7%, a viability, T/C (second compound 0.01 µM, first compound 0.1 µM) of 98.2% and a viability, T/C (second compound 0.01 µM, first compound 0.316 µM) of 73.9%. It also gave a viability, T/C (second compound 0.01 µM, first compound 1 µM) of 102%, a viability, T/C (second compound 0.01 µM, first compound 3.16 µM) of 98% and a viability, T/C (second compound 0.01 µM, first compound 10 µM) of 86.5%. It also gave a viability, T/C (second compound 0.0316 µM, first compound 0.0316 µM) of 86.6%, a viability, T/C (second compound 0.0316 µM, first compound 0.1 µM) of 98.5% and a viability, T/C (second compound 0.0316 µM, first compound 0.316 µM) of 100%. For the same compound, the viability, T/C (second compound 0.0316 µM, first compound 1 µM) was 95.3%, the viability, T/C (second compound 0.0316 µM, first compound 3.16 µM) was 77.1% and the viability, T/C (second compound 0.0316 µM, first compound 10 µM) was 95.3%. The viability, T/C (second compound 0.1 µM, first compound 0.0316 µM) was 83.7%, the viability, T/C (second compound 0.1 µM, first compound 0.1 µM) was 74.1% and the viability, T/C (second compound 0.1 µM, first compound 0.316 µM) was 70.4%. It also gave a viability, T/C (second compound 0.1 µM, first compound 1 µM) of 79%, a viability, T/C (second compound 0.1 µM, first compound 3.16 µM) of 55.1% and a viability, T/C (second compound 0.1 µM, first compound 10 µM) of 42.4%. The viability, T/C (second compound 0.316 µM, first compound 0.0316 µM) was 30.9%, the viability, T/C (second compound 0.316 µM, first compound 0.1 µM) was 35.2% and the viability, T/C (second compound 0.316 µM, first compound 0.316 µM) was 32.5%. For the same compound, the viability, T/C (second compound 0.316 µM, first compound 1 µM) was 28.4%, the viability, T/C (second compound 0.316 µM, first compound 3.16 µM) was 23.6% and the viability, T/C (second compound 0.316 µM, first compound 10 µM) was 27%. For the same compound, the viability, T/C (second compound 1 µM, first compound 0.0316 µM) was 14.8%, the viability, T/C (second compound 1 µM, first compound 0.1 µM) was 12.6% and the viability, T/C (second compound 1 µM, first compound 0.316 µM) was 7.23%. The viability, T/C (second compound 1 µM, first compound 1 µM) was 8.58%, the viability, T/C (second compound 1 µM, first compound 3.16 µM) was 5.75% and the viability, T/C (second compound 1 µM, first compound 10 µM) was 5.05%.
